# Measured values from US9995734B2, “Human T cell line assay for evaluating the immunologic identity of glatiramer acetate preparations” (Mylan Inc., priority 2013, dated 2018).
# Values joined by “and” are separate entries in the source; they are usually repeats but may differ in a detail not shown here. Equal entries are not always repeated.
# Test system: panel of six GA-specific long-term human T-cell lines (222-2D8, 222-2F12, 165-F3C, 165-F6C, 205-1C4, 205-1F4)
# Test: GA-specific human T-cell line panel assay (ATP proliferation): GA test lots and altered GA lots compared with Copaxone
# Format: cell-based
# Details: for ATP Proliferation Assay, Mean / Proliferation (ATP assay), Mean: 4 days; for Proliferation (ATP assay), Mean: Table 95
# Method: Proliferation assays, using the panel of six GA-specific long-term human T-cell lines listed in Table 78, were carried out to compare […] GA test lots, GMA/009/14 (GA Lot 009), GMA/010/14 (GA Lot 010), GMA/011/14 (GA Lot 011), GMA/012/14 (GA Lot 012), GMA/013/14 (GA Lot 013), GMA/014/14 (GA Lot 014), GA Lot 016, GMA/017/14 (GA Lot 017), GMA/018/14 (GA Lot 018), and GMA/070/14 (GA Lot 070), manufactured using standard methods, to a Copaxone reference lot.
# Each T-cell line was restimulated using methods described above, using five concentrations of the reference antigen (0.5, 1, 2, 2.5, and 5 μg/ml Copaxone), the same five concentrations of test antigen (the nine GA test lots), and a no antigen control, in the presence of 5×10^4 mitomycin-treated autologous B-LCL. Proliferation was measured by ATP assay after 4 days of incubation with antigen, using methods described previously.
# The percentages in the last column of each table were calculated as follows: Proliferation response to test antigen minus proliferation response to control (no antigen)÷proliferation response to reference antigen minus proliferation response to control (no antigen)
# The panel of six GA-specific human T-cell lines listed in Table 78 above was used to test the immunological identity of altered GA lots to Copaxone.
# Proliferation assays using the panel of six GA-specific T-cell lines (Table 77) were carried out, to compare negative GA lots 051F, 054F, 055F, 057F, 058F, 059F, and 060F (test lots), to Copaxone (reference lot). Each cell line was restimulated using 5 concentrations of reference antigen (Copaxone) and test antigen (the negative GA lots), including a no antigen control (in the presence of 5×10^4 mitomycin-treated autologous B-LCL). Proliferation was measured by ATP assay after 4 days of incubation with antigen, using methods described previously.
# The percentages in the last column of each table were calculated as follows: Proliferation response to test antigen minus proliferation response to control (no antigen)÷proliferation response to reference antigen minus proliferation response to control (no antigen).
substance,measurement,setting,value
glatiramer acetate [COP],"ATP Proliferation Assay, Mean","T-cell line 165-F3C, 0.5 μg/mL","4,783"
same,"ATP Proliferation Assay, Mean","T-cell line 165-F3C, 1 μg/mL","22,290"
same,"ATP Proliferation Assay, Mean","T-cell line 165-F3C, 2 μg/mL","53,771"
same,"ATP Proliferation Assay, Mean","T-cell line 165-F3C, 2.5 μg/mL","54,539"
same,"ATP Proliferation Assay, Mean","T-cell line 165-F3C, 5 μg/mL","58,110"
same,"ATP Proliferation Assay, Mean","T-cell line 165-F6C, 0.5 μg/mL","3,328"
same,"ATP Proliferation Assay, Mean","T-cell line 165-F6C, 1 μg/mL","4,620"
same,"ATP Proliferation Assay, Mean","T-cell line 165-F6C, 2 μg/mL","13,255"
same,"ATP Proliferation Assay, Mean","T-cell line 165-F6C, 2.5 μg/mL","18,726"
same,"Mean, ATP proliferation assay","T-cell line 165-F6C, 5 μg/mL","34,012 and 34,995 and 56,466 and 56,465 and 42,493 and 41,233 and 36,303"
same,"ATP Proliferation Assay, Mean","T-cell line 165-F6C, 5 μg/mL","38,653"
same,"ATP Proliferation Assay, Mean","T-cell line 205-1C4, 0.5 μg/mL",932
same,"ATP Proliferation Assay, Mean","T-cell line 205-1C4, 1 μg/mL","2,481"
same,"ATP Proliferation Assay, Mean","T-cell line 205-1C4, 2 μg/mL","9,432"
same,"ATP Proliferation Assay, Mean","T-cell line 205-1C4, 2.5 μg/mL","13,744"
same,"ATP Proliferation Assay, Mean","T-cell line 205-1C4, 5 μg/mL","45,451"
same,"ATP Proliferation Assay, Mean","T-cell line 205-1F4, 0.5 μg/mL",548
same,"ATP Proliferation Assay, Mean","T-cell line 205-1F4, 1 μg/mL","1,906"
same,"ATP Proliferation Assay, Mean","T-cell line 205-1F4, 2 μg/mL","9,959"
same,"ATP Proliferation Assay, Mean","T-cell line 205-1F4, 2.5 μg/mL","13,589"
same,"ATP Proliferation Assay, Mean","T-cell line 205-1F4, 5 μg/mL","18,491"
same,"ATP Proliferation Assay, Mean","T-cell line 222-2D8, 0.5 μg/mL","5,873"
same,"ATP Proliferation Assay, Mean","T-cell line 222-2D8, 1 μg/mL","14,017"
same,"ATP Proliferation Assay, Mean","T-cell line 222-2D8, 2 μg/mL","90,328"
same,"ATP Proliferation Assay, Mean","T-cell line 222-2D8, 2.5 μg/mL","129,878"
same,"ATP Proliferation Assay, Mean","T-cell line 222-2D8, 5 μg/mL","171,116"
same,"ATP Proliferation Assay, Mean","T-cell line 222-2F12, 0.5 μg/mL","10,879"
same,"ATP Proliferation Assay, Mean","T-cell line 222-2F12, 1 μg/mL","27,042"
same,"ATP Proliferation Assay, Mean","T-cell line 222-2F12, 2 μg/mL","105,024"
same,"ATP Proliferation Assay, Mean","T-cell line 222-2F12, 2.5 μg/mL","115,241"
same,"ATP Proliferation Assay, Mean","T-cell line 222-2F12, 5 μg/mL","129,291"
same,"Proliferation (ATP assay), Mean","T-cell line 165-F3C, GA conc. 0.5 μg/mL","3,154"
same,"Proliferation (ATP assay), Mean","T-cell line 165-F3C, GA conc. 1 μg/mL","9,050"
same,"Proliferation (ATP assay), Mean","T-cell line 165-F3C, GA conc. 2 μg/mL","27,693"
same,"Proliferation (ATP assay), Mean","T-cell line 165-F3C, GA conc. 2.5 μg/mL","28,018"
same,"Proliferation (ATP assay), Mean","T-cell line 165-F3C, GA conc. 5 μg/mL","32,151"
same,"Proliferation (ATP assay), Mean","T-cell line 165-F6C, GA conc. 0.5 μg/mL",863
same,"Proliferation (ATP assay), Mean","T-cell line 165-F6C, GA conc. 1 μg/mL","1,838"
same,"Proliferation (ATP assay), Mean","T-cell line 165-F6C, GA conc. 2 μg/mL","8,163"
same,"Proliferation (ATP assay), Mean","T-cell line 165-F6C, GA conc. 2.5 μg/mL","11,665"
same,"Proliferation (ATP assay), Mean","T-cell line 165-F6C, GA conc. 5 μg/mL","30,422"
same,"Proliferation (ATP assay), Mean","T-cell line 205-1C4, GA conc. 0.5 μg/mL","13,267"
same,"Proliferation (ATP assay), Mean","T-cell line 205-1C4, GA conc. 1 μg/mL","26,848"
same,"Proliferation (ATP assay), Mean","T-cell line 205-1C4, GA conc. 2 μg/mL","142,528"
same,"Proliferation (ATP assay), Mean","T-cell line 205-1C4, GA conc. 2.5 μg/mL","159,785"
same,"Proliferation (ATP assay), Mean","T-cell line 205-1C4, GA conc. 5 μg/mL","171,452"
same,"Proliferation (ATP assay), Mean","T-cell line 205-1F4, GA conc. 0.5 μg/mL","6,984"
same,"Proliferation (ATP assay), Mean","T-cell line 205-1F4, GA conc. 1 μg/mL","15,174"
same,"Proliferation (ATP assay), Mean","T-cell line 205-1F4, GA conc. 2 μg/mL","46,598"
same,"Proliferation (ATP assay), Mean","T-cell line 205-1F4, GA conc. 2.5 μg/mL","51,372"
same,"Proliferation (ATP assay), Mean","T-cell line 205-1F4, GA conc. 5 μg/mL","61,252"
same,"Proliferation (ATP assay), Mean","T-cell line 222-2D8, GA conc. 0.5 μg/mL","13,958"
